In test [1] the target is Atypical kinase COQ8B, mitochondrial (Homo sapiens) (UniProt Q96D53). Nature of the test: Inhibition of wild-type human full length ADCK4 (M1 to S544 residues) expressed in bacterial expression system at 1 uM by Kinomescan method relative to control.
The test system of test [2] is ALK tyrosine kinase receptor (Homo sapiens), Q9UM73 [L1196M]. Nature of the test: Inhibition of wild-type human partial length ALK L1196M mutant (I1088 to E1409 residues) expressed in mammalian expression system at 1 uM by Kinomescan method relative to control.
The target of test [3] is Mitogen-activated protein kinase kinase kinase 5 (Homo sapiens) (UniProt Q99683). Nature of the test: Inhibition of wild-type human partial length ASK1 (E648 to S964 residues) expressed in bacterial expression system at 1 uM by Kinomescan method relative to control.
For test [4], the target named is Serine/threonine-protein kinase 3 (Homo sapiens) (UniProt Q13188). Nature of the test: Inhibition of wild-type human partial length MST2 (D17 to E318 residues) expressed in bacterial expression system at 1 uM by Kinomescan method relative to control.
Test [5] has as its target Cyclin-dependent kinase 15 (Homo sapiens) (UniProt Q96Q40). Nature of the test: Inhibition of wild-type human full length PFTAIRE2 (M1 to W384 residues) expressed in bacterial expression system at 1 uM by Kinomescan method relative to control.
Test [6] concerns the target Serine/threonine-protein kinase N1 (Homo sapiens) (UniProt Q16512). Nature of the test: Inhibition of wild-type human partial length PKN1 (E598 to C948 residues) expressed in bacterial expression system at 1 uM by Kinomescan method relative to control.
In test [7] the target is Ribosomal protein S6 kinase alpha-6 (Homo sapiens) (UniProt Q9UK32). Nature of the test: Inhibition of wild-type human partial length N-terminal RSK4 kinase domain 1 (M1 to E397 residues) expressed in mammalian expression system at 1 uM by Kinomescan method relative to control.
For test [8], the system named is Tyrosine-protein kinase ABL1 (Homo sapiens), P00519 [E255K]. Nature of the test: Inhibition of human phosphorylated ABL1 E255K mutant (S229 to K512 residues) expressed in mammalian expression system at 10 uM by Kinomescan method relative to control.
Test [9] deals with Activin receptor type-1B (Homo sapiens) (UniProt P36896). Nature of the test: Inhibition of wild-type human ACVR1B (S187 to I505 residues) expressed in bacterial expression system at 10 uM by Kinomescan method relative to control.
The target in test [10] is RAC-beta serine/threonine-protein kinase (Homo sapiens) (UniProt P31751). Nature of the test: Inhibition of wild-type human partial length AKT2 expressed in bacterial expression system at 10 uM by Kinomescan method relative to control.
Test [11] has as its target Mitogen-activated protein kinase kinase kinase 6 (Homo sapiens) (UniProt O95382). Nature of the test: Inhibition of wild-type human partial length ASK2 (M278 to R972 residues) expressed in mammalian expression system at 10 uM by Kinomescan method relative to control.
In test [12] the target is Serine/threonine-protein kinase BRSK2 (Homo sapiens) (UniProt Q8IWQ3). Nature of the test: Inhibition of wild-type human full length BRSK2 (M1 to L674 residues) expressed in bacterial expression system at 10 uM by Kinomescan method relative to control.
In test [13] the target is Serine/threonine-protein kinase 17A (Homo sapiens) (UniProt Q9UEE5). Nature of the test: Inhibition of wild-type human partial length DRAK1 (R32 to E363 residues) expressed in bacterial expression system at 10 uM by Kinomescan method relative to control.
For test [14], the system named is Epidermal growth factor receptor (Homo sapiens), P00533 [UNDEFINED MUTATION]. Nature of the test: Inhibition of human partial length EGFR E746-A750del mutant expressed in bacterial expression system at 10 uM by Kinomescan method relative to control.
The target in test [15] is Receptor tyrosine-protein kinase erbB-2 (Homo sapiens) (UniProt P04626). Nature of the test: Inhibition of wild-type human partial length ERBB2 (K646 to V1225 residues) expressed in mammalian expression system at 10 uM by Kinomescan method relative to control.
Test [16] deals with Serine/threonine-protein kinase/endoribonuclease IRE1 (Homo sapiens) (UniProt O75460). Nature of the test: Inhibition of wild-type human partial length ERN1 (S551 to E852 residues) expressed in mammalian expression system at 10 uM by Kinomescan method relative to control.
In test [17] the target is Fibroblast growth factor receptor 3 (Homo sapiens) (UniProt P22607). Nature of the test: Inhibition of wild-type human partial length FGFR3 (R442 to S771 residues) expressed in bacterial expression system at 10 uM by Kinomescan method relative to control.
Test [18] deals with Receptor-type tyrosine-protein kinase FLT3 (Homo sapiens), P36888 [R834Q]. Nature of the test: Inhibition of human partial length FLT3 R834Q mutant (V592 to Y969 residues) expressed in mammalian expression system at 10 uM by Kinomescan method relative to control.
The target of test [19] is Mitogen-activated protein kinase kinase kinase kinase 1 (Homo sapiens) (UniProt Q92918). Nature of the test: Inhibition of wild-type human full length HPK1 (M1 to R799 residues) expressed in bacterial expression system at 10 uM by Kinomescan method relative to control.
Test [20] has as its target Dual specificity mitogen-activated protein kinase kinase 4 (Homo sapiens) (UniProt P45985). Nature of the test: Inhibition of wild-type human partial length MEK4 (S84 to D399 residues) expressed in mammalian expression system at 10 uM by Kinomescan method relative to control.
In test [21] the test system is Hepatocyte growth factor receptor (Homo sapiens), P08581 [Y1235D]. Nature of the test: Inhibition of human partial length MET Y1235D mutant (D1010 to S1367 residues) expressed in bacterial expression system at 10 uM by Kinomescan method relative to control.
The target of test [22] is Serine/threonine-protein kinase Nek9 (Homo sapiens) (UniProt Q8TD19). Nature of the test: Inhibition of wild-type human partial length NEK9 (P32 to R328 residues) expressed in bacterial expression system at 10 uM by Kinomescan method relative to control.
Test [23] concerns the target cAMP-dependent protein kinase catalytic subunit PRKX (Homo sapiens) (UniProt P51817). Nature of the test: Inhibition of wild-type human partial length PRKX (M1 to F358 residues) expressed in bacterial expression system at 10 uM by Kinomescan method relative to control.
Test [24] concerns the target Proto-oncogene tyrosine-protein kinase receptor Ret (Homo sapiens) (UniProt P07949). Nature of the test: Inhibition of wild-type human partial length RET (E713 to D1014 residues) expressed in bacterial expression system at 10 uM by Kinomescan method relative to control.
Test [25] concerns the target Ribosomal protein S6 kinase beta-1 (Homo sapiens) (UniProt P23443). Nature of the test: Inhibition of wild-type human partial length S6K1 (M1 to S421 residues) expressed in mammalian expression system at 10 uM by Kinomescan method relative to control.
Test [26] addresses Proto-oncogene tyrosine-protein kinase Src (Homo sapiens) (UniProt P12931). Nature of the test: Inhibition of wild-type human partial length SRC (L240 to L536 residues) expressed in bacterial expression system at 10 uM by Kinomescan method relative to control.
Test [27] addresses Serine/threonine-protein kinase WNK1 (Homo sapiens) (UniProt Q9H4A3). Nature of the test: Inhibition of wild-type human partial length WNK1 (Q194 to A490 residues) expressed in mammalian expression system at 10 uM by Kinomescan method relative to control.

Among the data in ChEMBL document CHEMBL4387741, “Optimization of novel reversible Bruton's tyrosine kinase inhibitors identified using Tethering-fragment-based screens” (Bioorg Med Chem, 2019) are inhibition values, retold here.

SMILES strings stand for the structures.

Chain of Cyclin-dependent kinase 15 (Homo sapiens) (Q96Q40 whole entry, the tested form may be a part): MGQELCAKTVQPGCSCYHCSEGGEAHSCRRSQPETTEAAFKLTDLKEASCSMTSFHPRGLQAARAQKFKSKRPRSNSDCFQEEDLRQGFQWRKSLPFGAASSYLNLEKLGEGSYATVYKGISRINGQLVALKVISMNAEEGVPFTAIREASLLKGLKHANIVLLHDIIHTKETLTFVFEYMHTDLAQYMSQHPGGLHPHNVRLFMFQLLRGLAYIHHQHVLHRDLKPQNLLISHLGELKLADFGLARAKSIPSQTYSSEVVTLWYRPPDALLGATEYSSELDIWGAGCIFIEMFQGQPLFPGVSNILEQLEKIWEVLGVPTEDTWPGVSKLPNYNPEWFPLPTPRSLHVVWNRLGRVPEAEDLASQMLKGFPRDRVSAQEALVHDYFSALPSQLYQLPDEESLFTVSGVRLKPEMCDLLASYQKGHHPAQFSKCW
Chain of ALK tyrosine kinase receptor (Homo sapiens), Q9UM73 [L1196M] (Q9UM73 whole entry L1196M, looked up, the tested form may be a part): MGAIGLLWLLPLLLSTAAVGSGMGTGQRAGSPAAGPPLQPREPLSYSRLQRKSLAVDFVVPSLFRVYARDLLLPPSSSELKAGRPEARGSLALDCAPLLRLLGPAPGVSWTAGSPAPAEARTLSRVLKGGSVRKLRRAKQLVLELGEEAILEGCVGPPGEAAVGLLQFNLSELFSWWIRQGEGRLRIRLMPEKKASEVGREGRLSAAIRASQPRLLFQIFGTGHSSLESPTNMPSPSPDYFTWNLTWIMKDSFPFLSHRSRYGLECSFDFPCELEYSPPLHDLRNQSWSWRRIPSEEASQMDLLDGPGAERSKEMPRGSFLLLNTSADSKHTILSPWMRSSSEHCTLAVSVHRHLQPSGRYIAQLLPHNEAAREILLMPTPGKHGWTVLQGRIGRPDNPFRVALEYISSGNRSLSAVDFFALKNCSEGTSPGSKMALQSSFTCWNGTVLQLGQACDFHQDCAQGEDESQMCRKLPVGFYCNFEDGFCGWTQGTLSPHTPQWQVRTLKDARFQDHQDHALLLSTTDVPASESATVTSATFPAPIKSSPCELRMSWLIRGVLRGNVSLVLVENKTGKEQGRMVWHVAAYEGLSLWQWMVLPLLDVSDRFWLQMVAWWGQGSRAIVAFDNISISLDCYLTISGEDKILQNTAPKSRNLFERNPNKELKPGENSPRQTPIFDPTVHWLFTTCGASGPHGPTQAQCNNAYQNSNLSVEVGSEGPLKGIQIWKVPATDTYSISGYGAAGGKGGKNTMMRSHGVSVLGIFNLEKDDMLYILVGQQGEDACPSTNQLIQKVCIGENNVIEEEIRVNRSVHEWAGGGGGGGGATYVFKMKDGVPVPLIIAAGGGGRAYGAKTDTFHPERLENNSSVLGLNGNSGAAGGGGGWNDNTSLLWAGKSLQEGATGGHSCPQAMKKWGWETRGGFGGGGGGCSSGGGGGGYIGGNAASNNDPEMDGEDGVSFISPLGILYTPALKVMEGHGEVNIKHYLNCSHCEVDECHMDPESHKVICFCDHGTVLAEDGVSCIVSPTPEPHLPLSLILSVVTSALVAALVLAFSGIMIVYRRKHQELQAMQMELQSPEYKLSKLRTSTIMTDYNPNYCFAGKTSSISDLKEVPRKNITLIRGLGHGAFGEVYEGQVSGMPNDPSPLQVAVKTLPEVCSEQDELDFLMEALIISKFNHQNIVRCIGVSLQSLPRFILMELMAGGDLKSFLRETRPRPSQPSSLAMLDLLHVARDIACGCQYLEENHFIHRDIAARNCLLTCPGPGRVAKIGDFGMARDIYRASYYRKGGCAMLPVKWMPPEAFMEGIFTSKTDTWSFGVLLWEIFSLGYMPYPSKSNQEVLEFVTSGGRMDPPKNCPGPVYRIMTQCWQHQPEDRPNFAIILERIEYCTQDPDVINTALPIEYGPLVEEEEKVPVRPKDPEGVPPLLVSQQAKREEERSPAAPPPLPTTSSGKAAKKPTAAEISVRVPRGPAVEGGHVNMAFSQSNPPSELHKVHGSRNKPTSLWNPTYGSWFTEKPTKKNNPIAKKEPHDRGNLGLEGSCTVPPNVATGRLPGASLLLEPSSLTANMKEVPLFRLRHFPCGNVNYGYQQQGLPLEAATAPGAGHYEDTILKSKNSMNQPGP
Chain of Tyrosine-protein kinase ABL1 (Homo sapiens), P00519 [E255K] (P00519 whole entry E255K, the tested form may be a part): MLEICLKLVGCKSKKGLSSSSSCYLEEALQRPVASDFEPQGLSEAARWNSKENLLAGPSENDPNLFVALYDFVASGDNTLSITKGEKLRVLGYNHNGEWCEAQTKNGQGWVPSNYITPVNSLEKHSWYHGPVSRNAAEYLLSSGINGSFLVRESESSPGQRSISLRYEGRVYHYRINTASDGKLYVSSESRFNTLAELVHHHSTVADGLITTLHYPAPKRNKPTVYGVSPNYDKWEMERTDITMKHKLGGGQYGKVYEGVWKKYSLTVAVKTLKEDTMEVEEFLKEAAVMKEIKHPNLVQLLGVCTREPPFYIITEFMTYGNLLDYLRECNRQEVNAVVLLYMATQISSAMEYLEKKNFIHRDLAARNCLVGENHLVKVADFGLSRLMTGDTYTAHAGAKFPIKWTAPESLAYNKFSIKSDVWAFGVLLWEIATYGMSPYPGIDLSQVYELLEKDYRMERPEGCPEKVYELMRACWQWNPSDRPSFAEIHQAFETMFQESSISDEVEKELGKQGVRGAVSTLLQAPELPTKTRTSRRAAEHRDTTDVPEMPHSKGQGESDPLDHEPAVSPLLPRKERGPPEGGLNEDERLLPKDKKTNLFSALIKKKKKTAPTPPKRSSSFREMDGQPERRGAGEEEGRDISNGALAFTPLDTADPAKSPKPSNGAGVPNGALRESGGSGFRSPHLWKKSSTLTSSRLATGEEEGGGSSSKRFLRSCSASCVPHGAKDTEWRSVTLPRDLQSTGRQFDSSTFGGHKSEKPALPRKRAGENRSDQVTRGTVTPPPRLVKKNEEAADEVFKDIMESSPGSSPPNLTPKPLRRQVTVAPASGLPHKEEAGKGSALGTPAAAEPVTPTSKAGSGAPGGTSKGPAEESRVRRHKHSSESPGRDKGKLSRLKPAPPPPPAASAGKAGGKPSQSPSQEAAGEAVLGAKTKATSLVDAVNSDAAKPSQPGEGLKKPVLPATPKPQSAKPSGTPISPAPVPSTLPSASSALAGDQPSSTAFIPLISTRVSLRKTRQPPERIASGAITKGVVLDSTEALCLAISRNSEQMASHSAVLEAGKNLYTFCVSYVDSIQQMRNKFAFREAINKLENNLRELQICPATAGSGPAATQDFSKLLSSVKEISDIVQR
Chain of Mitogen-activated protein kinase kinase kinase 5 (Homo sapiens) (Q99683 whole entry, the tested form may be a part): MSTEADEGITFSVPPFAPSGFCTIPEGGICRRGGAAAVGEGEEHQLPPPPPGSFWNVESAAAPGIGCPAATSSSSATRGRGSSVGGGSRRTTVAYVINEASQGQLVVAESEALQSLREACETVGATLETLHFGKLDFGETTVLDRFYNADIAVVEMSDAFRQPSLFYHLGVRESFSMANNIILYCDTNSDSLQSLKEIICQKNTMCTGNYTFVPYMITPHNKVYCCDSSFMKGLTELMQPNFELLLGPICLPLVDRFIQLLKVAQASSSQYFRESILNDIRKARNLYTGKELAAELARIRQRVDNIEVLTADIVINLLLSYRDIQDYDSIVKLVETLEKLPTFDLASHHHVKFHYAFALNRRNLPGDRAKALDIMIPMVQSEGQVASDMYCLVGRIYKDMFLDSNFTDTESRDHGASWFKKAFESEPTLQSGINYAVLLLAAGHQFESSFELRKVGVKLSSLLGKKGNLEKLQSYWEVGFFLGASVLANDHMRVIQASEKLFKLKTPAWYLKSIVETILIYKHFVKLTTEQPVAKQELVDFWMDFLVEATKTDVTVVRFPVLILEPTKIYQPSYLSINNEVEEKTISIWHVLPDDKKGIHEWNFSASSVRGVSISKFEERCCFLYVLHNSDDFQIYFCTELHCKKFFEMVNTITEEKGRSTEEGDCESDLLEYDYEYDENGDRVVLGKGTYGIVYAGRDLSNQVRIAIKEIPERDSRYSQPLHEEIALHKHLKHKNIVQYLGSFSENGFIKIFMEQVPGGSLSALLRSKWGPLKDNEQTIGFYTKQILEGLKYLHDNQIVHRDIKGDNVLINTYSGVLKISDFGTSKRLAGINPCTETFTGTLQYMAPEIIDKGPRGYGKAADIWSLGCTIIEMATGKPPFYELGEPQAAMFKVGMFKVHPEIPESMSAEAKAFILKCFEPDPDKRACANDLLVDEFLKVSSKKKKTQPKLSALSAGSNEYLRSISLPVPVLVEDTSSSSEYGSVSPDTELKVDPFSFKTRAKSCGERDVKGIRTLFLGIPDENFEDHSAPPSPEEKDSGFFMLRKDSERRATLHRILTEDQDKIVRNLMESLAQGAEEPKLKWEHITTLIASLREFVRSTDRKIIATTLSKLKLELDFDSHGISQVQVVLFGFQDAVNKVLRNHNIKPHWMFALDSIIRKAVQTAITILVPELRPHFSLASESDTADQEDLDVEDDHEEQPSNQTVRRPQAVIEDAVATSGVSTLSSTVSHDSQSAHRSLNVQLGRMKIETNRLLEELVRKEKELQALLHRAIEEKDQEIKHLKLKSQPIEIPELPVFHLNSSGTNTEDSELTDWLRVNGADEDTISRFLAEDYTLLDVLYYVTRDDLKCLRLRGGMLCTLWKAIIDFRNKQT
Chain of Proto-oncogene tyrosine-protein kinase Src (Homo sapiens) (P12931 2-536 limits assumed): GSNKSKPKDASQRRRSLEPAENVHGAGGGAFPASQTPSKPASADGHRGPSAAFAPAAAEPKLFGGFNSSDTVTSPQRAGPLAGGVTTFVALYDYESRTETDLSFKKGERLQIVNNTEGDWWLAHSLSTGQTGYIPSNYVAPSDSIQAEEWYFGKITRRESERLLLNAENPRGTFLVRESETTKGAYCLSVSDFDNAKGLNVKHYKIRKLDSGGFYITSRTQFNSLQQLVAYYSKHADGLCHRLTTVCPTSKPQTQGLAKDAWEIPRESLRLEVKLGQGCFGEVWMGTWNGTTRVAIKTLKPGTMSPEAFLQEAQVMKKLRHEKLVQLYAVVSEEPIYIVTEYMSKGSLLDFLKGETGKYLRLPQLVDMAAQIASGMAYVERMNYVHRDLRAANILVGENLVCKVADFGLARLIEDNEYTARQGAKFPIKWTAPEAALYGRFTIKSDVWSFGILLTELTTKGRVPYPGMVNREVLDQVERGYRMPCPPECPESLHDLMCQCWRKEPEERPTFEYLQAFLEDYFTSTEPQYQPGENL

For the compound `O=C(Nc1cccc([C@@H]2CN(c3ncnc4[nH]ccc34)CCN2CCO)c1)Nc1c(F)cccc1N1CCCC1`, the inhibition in [1] turned out to be 92%; in test [2] it was 74%; in [3], 97%; in test [4], 64%; in test [5], 91%; in test [6] it was 80%. The inhibition in test [7] came out at 89%.
Take `O=C(Nc1cccc([C@H]2CCCN(c3ncnc4[nH]ccc34)C2)c1)Nc1ccccc1N1CCCC1`: the inhibition turned out to be 35% in [8]; 100% in [9]; 100% in [10]; 73% in test [11]; 92% in test [12]; 46% in test [13]. The inhibition in test [14] is 75%; in [15], 55%; in [16] it was 45%; in test [17], 46%; in test [18], 44%; in [19], 100%. The inhibition in test [20] came out at 1.6%; in [21], 78%; in test [22], 95%; in [23], 96%; in [24], 0%; in [25], 23%. The inhibition in [26] came out at 80%; in [27] it was 72%.
